According to patent US20040180943A1, “Oxazolone analogs as amyloid aggregation inhibitors and for the treatment of alzheimer's disease and disorders related to amyloidosis” (priority 2002, published 2004):
Where “and” joins values, the source holds several entries; their conditions need not be identical. Equal entries are not always repeated. Where two headings read alike, the source gives them in different places.

Key:
Format in all cases: biochemical
Aβ (1-40) = biological target: T1, Aβ (1-40) (Homo sapiens, UniProt P05067); experiment: BASST (Beta-Amyloid Self-Seeding, ThioflavinT), inhibitors of self-seeded amyloid fibril growth; settings: 30 μM soluble Aβ(1-40), pH 7.5, 37° C. for 3 to 5 hours, thioflavin T fluorescence
T1 construct: Soluble Aβ (1-40)—2.2 mg/mL in deionized H2O
T1 sequence (P05067 672-711): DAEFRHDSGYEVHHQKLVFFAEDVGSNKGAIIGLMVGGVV
Experimental: 2. BASST (Beta-Amyloid Self-Seeding, ThioflavinT)
An assay for inhibitors of self-seeded arnyloid fibril growth
(§1) Assay Buffer—50 mM sodium phosphate, pH 7.5, 100 mM NaCl, 0.02% NaN3, 1 M urea (filter and store at 4° C.)
Soluble Aβ (1-40)—2.2 mg/mL in deionized H2O (is stored in aliquots at −20° C.; is kept on ice when thawed) will self-seed after 1 week storage. Typically, the solution is stored until no lag phase is seen in the assay.
Final assay conditions: 30 μM soluble Aβ(1-40) in deionized water in assay buffer. Compound to be tested is dissolved in DMSO, typically 5 to 50 mM stock, such that the final concentration of DMSO is <1% v/v in the assay.
Assay: Reaction mixture for 50 assays (on ice) is comprised of 1 μL of soluble Aβ(1-40)+13.5 μL assay buffer per assay. The following are the amounts of the components of the reaction mixture that result in each of the 50 assay wells.
1) The reaction mix above is prepared by mixing the components and storing on ice.
2) 14.5 μL of reaction mixture is pipetted into each of 50 wells of a polystyrene U-bottom, 96-well microtiter plate (Corning 25881-96) on ice.
(§2) 3) 1.7 μL of diluted compound to be tested is added to each well in a column of eight, including solvent control. Serial 3-fold dilutions from 1 mM (100 μM final) in assay buffer−urea=7 dilutions+zero. Each 96-well plate can therefore accommodate 11 samples+1 Congo Red control (0.039-5 μM final in 2-fold steps).
4) The plate with aluminum film is sealed and incubated for 10 minutes on ice.
(§3) 5) The temperature is raised to 37° C. and incubated for 3 to 5 hours (depending on the lot of the peptide).
6) The aluminum film is removed and 250 μL/well of 5 μM thioflavin T (ThT) [T-3516, Sigma-Aldrich] is added in 50 mM glycine-NaOH, pH 8.5. Fluorescence is read on a plate reader (ex=440 nm/20 nm; em=485 nm/20 nm) within 5 minutes.

Aβ(1-40) peptide = biological target: T2, Aβ(1-40) peptide (Homo sapiens, UniProt P05067); experiment: BASSR (Beta-Amyloid Self-Seeding Radioassay), inhibitors of self-seeded amyloid fibril growth; settings: 30 μM soluble Aβ(1-40) + 125I-labeled Aβ(1-40), pH 7.5, 37° C. for 3 to 5 hours, filtration
T2 construct: Soluble Aβ(1-40) peptide (Bachem, Torrance, Calif.); purchased Bachem, Torrance, Calif
T2 sequence (P05067 672-711): as above
Experimental: 1. BASSR (Beta-Amyloid Self-Seeding Radioassay)
An assay for inhibitors of self-seeded amyloid fibril growth
as §1
Soluble Aβ(1-40) peptide (Bachem, Torrance, Calif.)—2.2 mg/mL in deionized H2O (is stored in aliquots at −20° C.; is kept on ice when thawed) will self-seed after 1 week storage. Typically, the solution is stored until no lag phase is seen in the assay.
^125I-labeled Aβ(1-40)—150K to 350K cpm/μL in 100% acetonitrile—0.1% trifluoroacetic acid (TFA)—1% β-mercaptoethanol (aliquots stored at −20° C.). ^125I-labeled Aβ(1-40) is made in accordance with the procedure set forth by LeVine H., III, in Neurobiol. Aging, 1995;16:755, which is hereby incorporated by reference, or this reagent may be purchased from Amersham, Arlington Heights, Ill.
Final assay conditions: 30 μM soluble Aβ(1-40) in deionized water in assay buffer+20 K to 50 K cpm ^125I-labeled Aβ(1-40) per assay. Compound to be tested is dissolved in dimethylsulfoxide (DMSO), typically 5 to 50 mM stock, such that the final concentration of DMSO is <1% v/v in the assay.
Assay: Reaction mixture for 50 assays (on ice) is comprised of 0.1 to 0.2 μL of ^125I-labeled A^125I-labeled Aβ(1-40)+1 μL of soluble Aβ(1-40)+13.5 μL assay buffer per assay. The following are the amounts of the components of the reaction mixture sufficient for 50 assay wells.
1) The reaction mixture of above is prepared by mixing components and storing on ice.
2) 14.5 μL of the reaction mixture is pipetted into each of 50 wells on a polypropylene U-bottom 96-well microtiter plate on ice (Costar 3794).
as §2
4) The plate with aluminum film (Beckman 538619) is sealed and incubated for 10 minutes on ice.
as §3
6) The aluminum film is removed and 200 μL/well of ice cold assay buffer with urea is added. The radiolabeled fibrils are collected by vacuum filtration through 0.2 μm pore size GVWP filters in 96-well plates (Millipore MAGV N22, Bedford, Mass.). The radioactivity of the filters is determined by using standard methods well-known to those skilled in the art.

Aβ (1-42) = biological target: T3, Aβ (1-42) (Homo sapiens, UniProt P05067); experiment: Batym Assay (Aβ(1-42) aggregation, Thioflavin T fluorescence); settings: Aβ 1-42 final concentration 100 μM, PBS pH 7.4, 37° C. for 1 day, ThT fluorescence
T3 construct: Required Aβ (1-42) (California Peptide) is dried from its hexafluoroisopropanol (HFIP) stock solution; purchased California Peptide
T3 sequence (P05067 672-713): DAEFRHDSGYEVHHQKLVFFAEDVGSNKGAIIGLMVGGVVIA
Experimental: Required Aβ (1-42) (California Peptide) is dried from its hexafluoroisopropanol (HFIP) stock solution. The Aβ (1-42) is dissolved in DMSO and then mixed with phosphate buffered saline (PBS) (pH 7.4). The mixed Aβ (1-42) solution is filtered with a GVWP 0.22 μm syringe filter (Millipore, Bedford, Mass.). The compound to be tested in DMSO (50 times concentrate) is put into each well (0.5 μL/well) of a 96-well plate. The Aβ(1-42) solution is added into each well (25 μL/well). The plate is centrifuged at 1000 g for 5 minutes and incubated at 37° C. for 1 day (Aβ 1-42; final concentration 100 μM).
After incubation Thioflavin T (ThT) (30 μM) solution in glycine-NaOH buffer (pH 8.5, 50 mM) is added into each well (250 μL/well), fluorescence is measured (ex=440/20 nm, em=485/20 nm) using a fluorescence plate reader. The inhibitory activity is calculated as the reduction of fluorescence with the following formula:
Inhibition(%)={(F(Aβ)−F(Aβ+compound)}/{F(Aβ)−F(solvent−compound)}×100.
The IC50s are calculated by a curve-fitting program using the equation given below. The data is obtained from two different experiments in triplicate.
x=concentration of tested compound (M),

Row | Compound | IC50 (Aβ (1-40); read-out: BASST (IC50 = μM)) [µM] | IC50 (Aβ(1-40) peptide; read-out: BASSR (IC50 = μM)) | IC50 (Aβ (1-42)) | IC50 (Aβ (1-40); BASST (IC50 = μM)) [µM] | IC50 (Aβ(1-40) peptide; BASSR (IC50 = μM)) [µM]
1 | O=C1OC(c2ccccc2)=N/C1=C\c1ccccc1 [compound 1, 4-Benzylidene-2-phenyl-4H-oxazol-5-one] | > 100 | > 100 µM | – | – | –
2 | O=C1OC(c2ccccc2)=N/C1=C\c1ccc2c(c1)OCO2 [compound 2, 4-1,3-Benzodioxol-5-ylmethylene-2-phenyl-4H-oxazol-5-one] | – | 21 µM | > 100 µM | – | –
3 | COc1c(/C=C2\N=C(c3ccccc3)OC2=O)cc([N+](=O)[O-])cc1[N+](=O)[O-] [compound 3, 4-(2-Methoxy-3,5-dinitro-benzylidene)-2-phenyl-4H-oxazol-5-one] | – | – | – | 7 | > 100
4 | COc1ccc(/C=C2\N=C(c3ccccc3)OC2=O)cc1OC [compound 4, 5(4H)-Oxazolone,4-[(3,4-dimethoxyphenyl)methylene]-2-phenyl-] | > 100 | 7 µM and 8 µM | > 100 µM | – | –
5 | COc1ccc(C2=N/C(=C\c3ccccc3)C(=O)O2)cc1 [compound 5, 4-Benzylidene-2-(4-methoxy-phenyl)-4H-oxazol-5-one] | – | 16 µM | – | – | –
6 | CN(C)c1ccc(/C=C2\N=C(c3ccccc3)OC2=O)c2ccccc12 [compound 6, 4-(4-Dimethylamino-naphthalen-1-ylmethylene)-2-phenyl-4H-oxazol-5-one] | 2.6 | > 100 µM | 14.5 µM | – | –

Continued, in another order:

Row | IC50 (Aβ (1-40); read-out: BASST (IC50 = μM)) [µM] | IC50 (Aβ(1-40) peptide; read-out: BASSR (IC50 = μM)) | IC50 (Aβ (1-42)) | Compound | IC50 (Aβ (1-40); BASST (IC50 = μM)) [µM] | IC50 (Aβ(1-40) peptide; BASSR (IC50 = μM)) [µM]
7 | 8 | > 100 µM | 2.42 µM and 2.36 µM | CCCN(CCC)c1ccc(/C=C2/N=C(c3ccccc3)OC2=O)cc1 [compound 7, 4-(4-Dipropylamino-benzylidene)-2-phenyl-4H-oxazol-5-one] | – | –
8 | 7 | > 100 µM | – | COc1cccc(/C=C2\N=C(c3ccccc3)OC2=O)c1 [compound 8, 4-(3-Methoxy-benzylidene)-2-phenyl-4H-oxazol-5-one] | – | –
9 | 12 | > 100 µM | – | COc1cccc(/C=C2\N=C(c3ccc([N+](=O)[O-])cc3)OC2=O)c1OC [compound 9, 4-(2,3-Dimethoxy-benzylidene)-2-(4-nitro-phenyl)-4H-oxazol-5-one] | – | –
10 | 15 | > 100 µM | – | COc1ccc(/C=C2\N=C(c3ccccc3I)OC2=O)cc1OC [compound 10, 4-(3,4-Dimethoxy-benzylidene)-2-(2-iodo-phenyl)-4H-oxazol-5-one] | – | –
11 | 30 | 21 µM | – | O=C1OC(c2ccccc2)=N/C1=C\c1ccc(Cl)c(Cl)c1 [compound 11, 4-(3,4-Dichloro-benzylidene)-2-phenyl-4H-oxazol-5-one] | – | –
12 | – | > 100 µM | – | Cc1ccc(/C=C2\N=C(c3ccccc3)OC2=O)cc1C [compound 12, 4-(3,4-Dimethyl-benzylidene)-2-phenyl-4H-oxazol-5-one] | – | –
13 | 90 | 70 µM | – | O=C1OC(c2ccc([N+](=O)[O-])cc2)=N/C1=C\c1ccc(Cl)c(Cl)c1 [compound 13, 4-(3,4-Dichloro-benzylidene)-2-(4-nitro-phenyl)-4H-oxazol-5-one] | – | –
14 | > 100 | > 100 µM | – | O=C1OC(c2ccccc2)=N/C1=C\c1ccc(F)c(C(F)(F)F)c1 [compound 14, 4-(4-Fluoro-3-trifluoromethyl-benzylidene)-2-phenyl-4H-oxazol-5-one] | – | –
